These are literature values, as cited in patent publication US20120071440A1, “Pharmaceutical Composition For Enhancing Adiponectin Production And Food Useful Therefor” (priority 2009, published 2012).

The data set relates to adiponectin. Particulars: reported in Diabetes Research and Clinical Practice 2004.

On to `Cn1c(=O)c2c(ncn2C)n(C)c1=O` [caffeine], for which the adiponectin production entry is recorded as “capable of producing adiponectin, but this effect is not large”.
